# Data taken from EPA's ToxRefDB 2.
# Experiments:
# [1] = tested on: rat; details: Combined chronic toxicity/carcinogenicity, wistar, Oral, Feed, dose end: 26 month
# [2] = tested on: rat; details: Subchronic oral toxicity in rodents, Diet, dose end: 90 day
# [3] = tested on: dog; details: Chronic toxicity; beagle; Oral; Feed; dose end: 12 month; group: cholinesterase; cholinesterase / cholinesterase / cholinesterase / erythrocyte cholinesterase (che) + cholinesterase / cholinesterase / cholinesterase / …
# [4] = tested on: rat; details: Developmental neurotoxicity study; long evans; Injection; Subcutaneous; dose end: 30 PND; group: cannot be grouped; cholinesterase / cholinesterase / cholinesterase / cholinesterase (che) + systemic / in life observation / body weight / offspring (pup) …
# [5] = tested on: dog; details: Subchronic oral toxicity in nonrodent, beagle, Capsule, dose end: 6 month
# [6] = tested on: rat; details: Chronic toxicity, Oral, Feed, dose end: 26 month, group: systemic
# [7] = tested on: rat; details: Combined chronic toxicity/carcinogenicity, sprague dawley, Oral, Feed, dose end: 24 month, group: systemic
# [8] = tested on: dog; details: Chronic toxicity, beagle, Oral, Feed, dose end: 52 week, group: systemic
# [9] = tested on: rat; details: Prenatal developmental toxicity study, wistar, Oral, Gavage/Intubation, dose end: 16 GD
# [10] = tested on: rabbit; details: Prenatal developmental toxicity study, himalayan, Oral, Gavage/Intubation, dose end: 18 GD, group: maternal
# [11] = tested on: rat; details: Multigenerational reproductive toxicity study, WIST Han Ibm: WIST ISPF, Oral, Feed, dose end: 2 generation
# [12] = group: cholinesterase, cholinesterase / cholinesterase / cholinesterase / erythrocyte cholinesterase (che) + cholinesterase / cholinesterase / cholinesterase / …
# [13] = group: systemic, systemic / in life observation / body weight / body weight + systemic / in life observation / clinical signs / [other] + systemic / in life …
# [14] = group: systemic, systemic / in life observation / body weight / body weight gain + systemic / in life observation / mortality / mortality
# [15] = group: cholinesterase, cholinesterase / cholinesterase / cholinesterase / plasma cholinesterase (che)
# [16] = group: systemic, systemic / clinical chemistry / [other] / [other]
# [17] = systemic / pathology microscopic / eye / [other]
# [18] = systemic / pathology microscopic / eye / [other] + systemic / pathology microscopic / eye / atrophy + systemic / pathology microscopic / eye…
# [19] = systemic / pathology microscopic / nerve / [other] + systemic / pathology microscopic / nerve / proliferation
# [20] = systemic / clinical chemistry / alkaline phosphatase (alp/alk) / alkaline phosphatase (alp/alk) + systemic / organ weight / liver / absolute…
# [21] = group: developmental, systemic / in life observation / body weight / fetal weight + systemic / in life observation / body weight / offspring (pup) weight gain
# [22] = group: developmental, systemic / in life observation / body weight / fetal weight + systemic / in life observation / body weight / offspring (pup) weight gain + …
# [23] = group: maternal, systemic / in life observation / body weight / body weight gain + systemic / in life observation / food consumption / food efficiency
# [24] = group: maternal, systemic / in life observation / body weight / body weight gain + systemic / in life observation / food consumption / food efficiency + …
# [25] = reproductive / reproductive performance / aborted / aborted + systemic / in life observation / body weight / body weight gain + systemic / …
# [26] = group: offspring, systemic / in life observation / body weight / offspring (pup) weight + systemic / in life observation / body weight / offspring (pup) …
# [27] = group: parental, systemic / in life observation / body weight / body weight + systemic / in life observation / body weight / body weight gain + systemic / …
smiles,measurement,setting,value
CCOP(=S)(OCC)Oc1ccc([N+](=O)[O-])cc1 [Parathion],LEL,[1]; [12],0.42 mg/kg/day
same,LOAEL,[1]; [12],0.42 mg/kg/day
same,NEL,[1]; [12],0.1 mg/kg/day
same,NOAEL,[1]; [12],0.1 mg/kg/day
same,LOAEL,[1]; [13],> 1.75 mg/kg/day
same,NOAEL,[1]; [13],≥ 1.75 mg/kg/day
same,LEL,"[1]; group: systemic, systemic / pathology microscopic / eye / [other]",0.53 mg/kg/day
same,NEL,"[1]; group: systemic, systemic / pathology microscopic / eye / [other] + systemic / clinical chemistry / aspartate aminotransferase (ast/sgot) / aspartate …",0.14 mg/kg/day
same,LEL,[2]; [12],0.4 mg/kg/day
same,LOAEL,[2]; [12],4 mg/kg/day
same,NEL,[2]; [12],0.04 mg/kg/day
same,NOAEL,[2]; [12],0.4 mg/kg/day
same,LEL,[2]; [14],4 mg/kg/day
same,LOAEL,[2]; [14],4 mg/kg/day
same,NEL,[2]; [14],0.4 mg/kg/day
same,NOAEL,[2]; [14],0.4 mg/kg/day
same,LEL,[3],0.01 mg/kg/day
same,LOAEL,[3],0.01 mg/kg/day
same,NEL,[3],< 0.01 mg/kg/day
same,NOAEL,[3],< 0.01 mg/kg/day
same,LEL,[4],1.3 mg/kg/day
same,LOAEL,[4],> 1.9 mg/kg/day
same,NEL,[4],< 1.3 mg/kg/day
same,NOAEL,[4],≥ 1.9 mg/kg/day
same,LEL,[5]; [15],0.0024 mg/kg/day
same,LOAEL,[5]; [15],0.0079 mg/kg/day
same,NEL,[5]; [15],< 0.0024 mg/kg/day
same,NOAEL,"[5]; group: cholinesterase, cholinesterase / cholinesterase / cholinesterase / plasma cholinesterase (che) + cholinesterase / cholinesterase / cholinesterase / brain (…",0.0024 mg/kg/day
same,LEL,[5]; [16],0.794 mg/kg/day
same,LOAEL,[5]; [16],> 0.794 mg/kg/day
same,NEL,[5]; [16],0.0079 mg/kg/day
same,NOAEL,[5]; [16],≥ 0.794 mg/kg/day
same,NEL,[6]; [17],0.4 mg/kg/day
same,NOAEL,[6]; [17],0.4 mg/kg/day
same,LEL,[6]; [18],1.6 mg/kg/day
same,LOAEL,[6]; [18],1.6 mg/kg/day
same,NEL,[7]; systemic / in life observation / clinical signs / abnormal gait,0.25 mg/kg/day
same,LOAEL,[7]; [19],2.5 mg/kg/day
same,NOAEL,[7]; [19],0.25 mg/kg/day
same,LEL,[7]; systemic / pathology microscopic / nerve / [other] + systemic / pathology microscopic / nerve / proliferation + systemic / in life …,2.5 mg/kg/day
CCOC(=O)C1=NN(c2ccc(Cl)cc2Cl)C(C)(C(=O)OCC)C1 (centres undefined) [Mefenpyr-diethyl],LOAEL,[8]; [20],260 mg/kg/day
same,NOAEL,[8]; [20],51.4 mg/kg/day
same,LEL,[8]; systemic / organ weight / liver / relative to body weight,57.6 mg/kg/day
same,NEL,[8]; systemic / organ weight / liver / relative to body weight + systemic / clinical chemistry / alkaline phosphatase (alp/alk) / alkaline …,11.1 mg/kg/day
same,LOAEL,[9]; [21],1000 mg/kg/day
same,NOAEL,[9]; [21],< 1000 mg/kg/day
same,LEL,[9]; [22],1000 mg/kg/day
same,NEL,[9]; [22],< 1000 mg/kg/day
same,LOAEL,[9]; [23],1000 mg/kg/day
same,NOAEL,[9]; [23],< 1000 mg/kg/day
same,LEL,[9]; [24],1000 mg/kg/day
same,NEL,[9]; [24],< 1000 mg/kg/day
same,LOAEL,[10]; reproductive / reproductive performance / aborted / aborted + reproductive / offspring survival early / live fetuses / live fetuses,250 mg/kg/day
same,LEL,[10]; reproductive / reproductive performance / aborted / aborted + reproductive / offspring survival early / live fetuses / live fetuses + …,250 mg/kg/day
same,NEL,[10]; [25],100 mg/kg/day
same,NOAEL,[10]; [25],100 mg/kg/day
same,LEL,[11]; [26],250 mg/kg/day
same,LOAEL,[11]; [26],250 mg/kg/day
same,NEL,[11]; [26],50 mg/kg/day
same,NOAEL,[11]; [26],50 mg/kg/day
same,LEL,[11]; [27],250 mg/kg/day
same,LOAEL,[11]; [27],250 mg/kg/day
same,NEL,[11]; [27],50 mg/kg/day
same,NOAEL,[11]; [27],50 mg/kg/day
